# Non-standard residues stand in square brackets, D forms with d. Residues, ends and D or L forms follow the SMILES beside them.
# Experiments:
# [1] = Weight gain in chickens (cockerels); format: in vivo, P-46 breed
# Procedure: The effect of the peptide on weight gain in chickens was examined. Tests were conducted on chickens of egg oriented productivity, "P-46" breed. 24 hour old cockerels were divided in 5 groups, 13 cockerels in each--one control group and 4 test groups.
# The birds were given a full diet till they reached the age of 10 weeks. 100% of birds in both the control and test groups survived.
# After 10 weeks, the cockerels were killed and examined.
# Quality of the cockerel meat was tested on an organoleptic basis.
# Weight gain in pigs = format: in vivo
# Procedure: The purpose of the first stage of testing was to determine the optimal dose of the peptide necessary to achieve the desired weight gain and the most beneficial manner of administering the peptide. The first stage of testing was conducted over a period of 100 days.
# The pigs were divided into seven groups of ten animals each. The animals were all aged 4-5 months, and weighed about the same. There was one control group and six test groups. All the groups were given an ordinary diet.
# Test groups 2, 3, and 4 were administered the peptide (1.0, 5.0, 10.0 μg kg/body weight) with feed, for 20 days each month with a 10 day break. Test groups 5, 6, and 7 were administered the peptide by injections of 0.01% water solutions for five days each month with a 25 day break (0.1, 0.5 and 1.0 μg per body weight).
# Physiological examinations and biochemical tests were carried out during the experiment. The pigs were weighed on the 30th, 65th and 100th days of the experiment. […] Administration of 1 μg per 1 kg of body weight by intramuscular injections achieved a weight gain 18% higher than the control group (group 6).
# The second stage of the experiment lasted 95 days, after which the animals were killed. The second stage of the experiment was carried out only with groups three and six, in order to determine which method of administration of the peptide produced the best results. […]
# [2] = Weight gain in young bulls; format: in vivo; details: during the experiment
# Procedure: There were 7 groups of animals having approximately the same weight, with 12 young bulls in each group. The age of the animals was 2 months. There were 6 test groups and one control. The test animals were administered Sedatin with water before they were fed or as intramuscular injections in the amounts shown in Table 12. All animals received the same diet and were kept in the same conditions. Two animals in the control group fell ill during the experiment, and were replaced by analogs.
# Two groups, one control and one test, were chosen for the second stage of the experiment. The test group was administered the peptide mixed with feed, in the amount of 10 μg per 1 kg of body weight. The control group was not administered any of the peptide. The data was biometrically processed.
smiles,measurement,setting,value
C[C@@H](NC(=O)[C@H](Cc1ccc(O)cc1)NC(=O)[C@@H](N)CCCNC(=N)N)C(=O)N[C@@H](Cc1ccccc1)C(=O)NCC(=O)O [H-Arg-Tyr-D-Ala-Phe-Gly-OH] (H-RY[dA]FG-OH),"quality of cockerel meat (colour, smell, consistency, taste), organoleptic",[1]; all groups,the same as in the control group
same,birds survived,"[1]; test groups, to age of 10 weeks",100%
same,biochemical and physicochemical tests,Weight gain in pigs,no deviation from the control group
same,"quality characteristics (pathological changes, decrease of fat layer, etc.)",Weight gain in pigs,No changes were observed
same,"temperature, pulse and breath-rate",[2],no deviation from the control group
same,solubility in alcohol,alcohol,slightly soluble
same,solubility in chloroform,chloroform,practically insoluble
same,solubility in water,water,soluble
